Laboratory results: patent US20240317709A1, “Lysophosphatidic Acid Receptor Antagonists for Breast Cancer Treatment” (Lakehead University, priority 2023, published 2024)

Tests used:
Assay type in all cases: cell-based
LPA1 = LPA1 (Homo sapiens, UniProt Q92633); assay: in vitro cAMP assay using a CHO cell line overexpressing LPA1 receptor; parameters: GFP; host or cells: CHO-K1, transiently transfected; conditions: for % inhibition: cAMP assay, 1 μM LPA, 100 nM forskolin, test concentration not given
MDA-MB-231 cells [1] = assay: colony formation assay; conditions: LPA with 1f 0, 0.5, 1.0 or 1.5 mM, FIG. 2
Procedure: In order to study the effect of LPA and the compound 1f on the proliferation, migration, and invasion of MDA-MB-231, several in vitro assays were performed. Colony formation assay is a cell survival assay based on the ability of a single cell to grow into a colony and was performed to evaluate cell proliferation (17).
MDA-MB-231 cells were trypsinized and plated in 6-well plate at a density of 1,000 cells/well and then cultured in 10% FBS DMEM. Cells were allowed to attach overnight and then exposed to LPA or LPA with 1f (0, 0.5, 1.0 or 1.5 mM). Forty-eight hours after chemical treatment, the media was replaced with fresh media, and the plates were incubated at 37° C. Ten days later, the cells were fixed and stained with 4% paraformaldehyde in 0.1% crystal violet. The number of colonies, defined as >50 cells/colony were counted, and the number of colonies were calculated using ImageJ.

MDA-MB-231 cells [2] = assay: wound healing assay; conditions: LPA with 1f 0, 0.5, 1.0 or 1.5 mM, 48 h, FIG. 3A
Procedure: Wound healing assay is a well-established method to determine cell migration in vitro. Firstly, a scratch was created in the cell monolayer, and then cells migrate to close the scratch. Cell migration rate can be measured using this method.
Cells were seeded in a six-well plate at a density of 3×10^5 cells/well. When the cells formed a tight cell monolayer, a 200-μl plastic pipette tip was used to make a scratch. Cells were washed with PBS to remove cell debris, cultured in serum-free DMEM medium and exposed to LPA or LPA with 1f (0, 0.5, 1.0 or 1.5 mM) for 48 h.
Wound photographs were recorded at the indicated times and analyzed by ImageJ software. All assays were conducted three times in our study.

MDA-MB-231 cells [3] = assay: transwell cell migration assay; conditions: LPA with 1f 0, 0.5, 1.0 or 1.5 mM, 48 h, FIG. 3B
Procedure: (§1) In addition, transwell migration/invasion assays were performed to further confirm the effect of LPA and 1f on cell migration and invasion. Transwell assay is based on a chamber of two media-filled partitions separated by a microporous membrane. Cells were plated in the upper chamber and are allowed to migrate to the lower chamber through the membrane pores with the stimulation of LPA and 1f. For the invasion assay, a layer of basement membrane extract was precoated on the chamber to block the pores of the membrane and prevent non-invasive cells from migrating through the membranes. Invasive cells are able to secret proteases which degrade the membrane extract in order to invade through the membrane.
(§2) Transwell assays were conducted in 24-well transwell plates (pore size: 8 μm) to assess the migratory and invasive capacities of MDA-MB-231 cells. For migration assays, 2×10^4 cells were placed in 200 μl of serum-free DMEM in the upper chamber and then 500 μl of DMEM containing 10% FBS was added to the lower chamber. For the invasion assays, the chamber inserts were precoated with 50 μl of 1:9 mixture of basement membrane extract (R&D Systems) and DMEM overnight in a 37° C. incubator, then 6×10^4 cells were seeded in the upper chamber. 500 μl of DMEM containing 10% FBS was added to the lower chamber. Cells were treated with LPA or LPA with 1f (0, 0.5, 1.0 or 1.5 mM) for 48 h. […]

MDA-MB-231 cells [4] = assay: transwell cell invasion assay; conditions: basement membrane extract coated, LPA with 1f 0, 0.5, 1.0 or 1.5 mM, 48 h, FIG. 3B
Procedure: as §1, §2

[5] = concentration to reverse 50% of the inhibitory effect of 1 μM 18:1 LPA on forskolin-mediated cAMP production, CHO-K1 overexpressing LPA1

LPA1, sequence (Q92633 whole entry): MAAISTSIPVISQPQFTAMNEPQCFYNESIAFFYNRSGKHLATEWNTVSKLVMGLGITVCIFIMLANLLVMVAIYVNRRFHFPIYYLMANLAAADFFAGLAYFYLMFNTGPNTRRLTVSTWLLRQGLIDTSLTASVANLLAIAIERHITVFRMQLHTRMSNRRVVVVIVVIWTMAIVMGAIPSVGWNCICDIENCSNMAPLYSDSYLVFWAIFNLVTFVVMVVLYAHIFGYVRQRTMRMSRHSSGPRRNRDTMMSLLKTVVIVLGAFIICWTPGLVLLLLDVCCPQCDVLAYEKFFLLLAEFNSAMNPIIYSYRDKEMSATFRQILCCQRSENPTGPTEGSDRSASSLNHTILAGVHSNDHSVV

Compound	% inhibition (LPA1)	IC50 (LPA1; [5])	also measured
Cc1nnn(-c2ccc(-c3ccc(C4(C(=O)O)CC4)cc3)cc2)c1NC(=O)OCc1ccc(F)cc1 [Compound 1b, 1-(4′-(5-((((4-fluorobenzyl)oxy)carbonyl)amino)-4-methyl-1H-1,2,3-triazol-1-yl)-[1,1′-biphenyl]-4-yl)cyclopropane-1-carboxylic acid]	58.43%	3340 nM	
Cc1nnn(-c2ccc(-c3ccc(C4(C(=O)O)CC4)cc3)cc2)c1NC(=O)OCc1cccc(F)c1 [Compound 1c, 1-(4′-(5-((((3-fluorobenzyl)oxy)carbonyl)amino)-4-methyl-1H-1,2,3-triazol-1-yl)-[1,1′-biphenyl]-4-yl)cyclopropane-1-carboxylic acid]	77.1%	2150 nM	
Cc1nnn(-c2ccc(-c3ccc(C4(C(=O)O)CC4)cc3)cc2)c1NC(=O)OCc1ccccc1F [Compound 1d, 1-(4′-(5-((((2-fluorobenzyl)oxy)carbonyl)amino)-4-methyl-1H-1,2,3-triazol-1-yl)-[1,1′-biphenyl]-4-yl)cyclopropane-1-carboxylic acid]	81.9%	1490 nM	
Cc1nnn(-c2ccc(-c3ccc(C4(C(=O)O)CC4)cc3)cc2)c1NC(=O)OC(C)c1ccc(F)cc1 (stereo not drawn) [Compound 1e, 1-(4′-(5-(((1-(4-fluorophenyl)ethoxy)carbonyl)amino)-4-methyl-1H-1,2,3-triazol-1-yl)-[1,1-biphenyl]-4-yl)cyclopropane-1-carboxylic acid]	102.1%	93.3 nM	
Cc1nnn(-c2ccc(-c3ccc(C4(C(=O)O)CC4)cc3)cc2)c1NC(=O)OC(C)c1cccc(F)c1 (stereo not drawn) [Compound 1f, 1-(4′-(5-(((1-(3-fluorophenyl)ethoxy)carbonyl)amino)-4-methyl-1H-1,2,3-triazol-1-yl)-[1,1′-biphenyl]-4-yl)cyclopropane-1-carboxylic acid]	109.8%	16 nM	inhibition of LPA-induced cell proliferation (colony formation) (MDA-MB-231 cells [1]): inhibited LPA-induced MDA-MB-231 cell proliferation in a dose-dependent manner; inhibition of LPA-induced cell migration (wound healing) (MDA-MB-231 cells [2]): impeded cell migration dose-dependently; inhibition of LPA-induced cell migration (transwell) (MDA-MB-231 cells [3]): hindered by 1f dose-dependently; inhibition of LPA-induced cell invasion (transwell) (MDA-MB-231 cells [4]): hindered by 1f dose-dependently; IC50 (nM) (LPA1; [5]): lower than the control compound
CCc1cccc(COC(=O)Nc2c(C)nnn2-c2ccc(-c3ccc(C4(C(=O)O)CC4)cc3)cc2)c1 [Compound 1h, 1-(4′-(5-((((3-ethylbenzyl)oxy)carbonyl)amino)-4-methyl-1H-1,2,3-triazol-1-yl)-[1,1′-biphenyl]-4-yl)cyclopropane-1-carboxylic acid]	115.7%	91.2 nM	

Second part, led by results:

% inhibition (LPA1)	IC50 (LPA1; [5])	Compound	also measured
41.8%	1000 nM	Cc1nnn(-c2ccc(-c3ccc(C4(C(=O)O)CC4)cc3)cc2)c1NC(=O)NCc1ccccn1 [Compound 2a, 1-(4′-(4-methyl-5-(3-(pyridin-2-ylmethyl)ureido)-1H-1,2,3-triazol-1-yl)-[1,1′-biphenyl]-4-yl)cyclopropane-1-carboxylic acid]	
40.5%	3150 nM	Cc1nnn(-c2ccc(-c3ccc(C4(C(=O)O)CC4)cc3)cc2)c1NC(=O)NCc1ccc(F)cc1 [Compound 2b, 1-(4′-(5-(3-(4-fluorobenzyl)ureido)-4-methyl-1H-1,2,3-triazol-1-yl)-[1,1′-biphenyl]-4-yl)cyclopropane-1-carboxylic acid]	
88.1%	2000 nM	Cc1nnn(-c2ccc(-c3ccc(C4(C(=O)O)CC4)cc3)cc2)c1NC(=O)NCc1cccc(F)c1 [Compound 2c, 1-(4′-(5-(3-(3-fluorobenzyl)ureido)-4-methyl-1H-1,2,3-triazol-1-yl)-[1,1′-biphenyl]-4-yl)cyclopropane-1-carboxylic acid]	
49.5%	4470 nM	Cc1nnn(-c2ccc(-c3ccc(C4(C(=O)O)CC4)cc3)cc2)c1NC(=O)NCc1ccccc1F [Compound 2d, 1-(4′-(5-(3-(2-fluorobenzyl)ureido)-4-methyl-1H-1,2,3-triazol-1-yl)-[1,1′-biphenyl]-4-yl)cyclopropane-1-carboxylic acid]	
102.0%	780 nM	Cc1nnn(-c2ccc(-c3ccc(C4(C(=O)O)CC4)cc3)cc2)c1NC(=O)N[C@H](C)c1ccc(F)cc1 [Compound 2e, (R)-1-(4′-(5-(3-(1-(4-fluorophenyl)ethyl)ureido)-4-methyl-1H-1,2,3-triazol-1-yl)-[1,1′-biphenyl]-4-yl)cyclopropane-1-carboxylic acid]	
108.1%	242 nM	Cc1nnn(-c2ccc(-c3ccc(C4(C(=O)O)CC4)cc3)cc2)c1NC(=O)N[C@H](C)c1ccccc1 [Compound 2f, (R)-1-(4′-(4-methyl-5-(3-(1-phenylethyl)ureido)-1H-1,2,3-triazol-1-yl)-[1,1′-biphenyl]-4-yl)cyclopropane-1-carboxylic acid]	
92.7%	299 nM	Cc1nnn(-c2ccc(-c3ccc(C4(C(=O)O)CC4)cc3)cc2)c1NC(=O)N[C@@H](C)c1ccccc1 [Compound 2g, (S)-1-(4′-(4-methyl-5-(3-(1-phenylethyl)ureido)-1H-1,2,3-triazol-1-yl)-[1,1′-biphenyl]-4-yl)cyclopropane-1-carboxylic acid]	
83.8%	240 nM	Cc1nnn(-c2ccc(-c3ccc(C4(C(=O)O)CC4)cc3)cc2)c1NC(=O)NC(C)c1ccccc1 (stereo not drawn) [Compound 2h, 1-(4′-(4-methyl-5-(3-(1-phenylethyl)ureido)-1H-1,2,3-triazol-1-yl)-[1,1′-biphenyl]-4-yl)cyclopropane-1-carboxylic acid]	
